# From PubChem BioAssay (NCI)
#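 In this assay, cells in 96-well plates receive the compound at five concentrations for 48 hours. Endpoints are linearly interpolated between the surrounding concentrations. TGI marks complete inhibition of growth.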
# Columns and labels:
# Assay in all cases: DTP human tumour cell line panel, 48 h
# [1] = test system: 786-0 renal
# [2] = test system: A498 renal
# [3] = test system: A549 NSCLC
# [4] = test system: ACHN renal
# [5] = test system: BT-549 breast
# [6] = test system: CAKI-1 renal
# [7] = test system: CCRF-CEM leukemia
# [8] = test system: COLO 205 colon
# [9] = test system: DU-145 prostate
# [10] = test system: EKVX NSCLC
# [11] = test system: HCT-116 colon
# [12] = test system: HCT-15 colon
# [13] = test system: HOP-62 NSCLC
# [14] = test system: HOP-92 NSCLC
# [15] = test system: HS 578T breast
# [16] = test system: HT29 colon
# [17] = test system: IGROV1 ovarian
# [18] = test system: K-562 leukemia
# [19] = test system: KM12 colon
# [20] = test system: LOX IMVI melanoma
# [21] = test system: M14 melanoma
# [22] = test system: MALME-3M melanoma
# [23] = test system: MCF7 breast
# [24] = test system: MDA-MB-231 breast
# [25] = test system: MDA-MB-435
# [26] = test system: MDA-N
# [27] = test system: MOLT-4 leukemia
# [28] = test system: NCI-H226 lung
# [29] = test system: NCI-H23 lung
# [30] = test system: NCI-H460 lung
# [31] = test system: NCI-H522 lung
# [32] = test system: NCI/ADR-RES ovarian
# [33] = test system: OVCAR-3 ovarian
# [34] = test system: OVCAR-4 ovarian
# [35] = test system: OVCAR-5 ovarian
# [36] = test system: OVCAR-8 ovarian
# [37] = test system: PC-3 prostate
# [38] = test system: RPMI-8226 leukemia
# [39] = test system: SF-268 CNS
# [40] = test system: SF-295 CNS
# [41] = test system: SF-539 CNS
# [42] = test system: SK-MEL-2 melanoma
# [43] = test system: SK-MEL-28 melanoma
# [44] = test system: SK-MEL-5 melanoma
# [45] = test system: SK-OV-3 ovarian
# [46] = test system: SN12C renal
# [47] = test system: SNB-19 CNS
# [48] = test system: SNB-75 CNS
# [49] = test system: SW-620 colon
# [50] = test system: T-47D breast
# [51] = test system: TK-10 renal
# [52] = test system: U251 CNS
# [53] = test system: UACC-257 melanoma
# [54] = test system: UACC-62 melanoma
# [55] = test system: UO-31 renal
# [56] = test system: HCC-2998 colon
# [57] = test system: HL-60(TB) leukemia
# [58] = test system: RXF 393 renal
# [59] = test system: SR leukemia
smiles,measurement,setting,value
CC1N=C(c2ccccc2)OC1=O (stereo not given),TGI,[1],> 100 µM
same,TGI,[2],> 100 µM
same,TGI,[3],> 100 µM
same,TGI,[4],> 100 µM
same,TGI,[5],> 100 µM
same,TGI,[6],> 100 µM
same,TGI,[7],> 100 µM
same,TGI,[8],> 100 µM
same,TGI,[9],> 100 µM
same,TGI,[10],> 100 µM
same,TGI,[11],> 100 µM
same,TGI,[12],> 100 µM
same,TGI,[13],> 100 µM
same,TGI,[14],> 100 µM
same,TGI,[15],> 100 µM
same,TGI,[16],> 100 µM
same,TGI,[17],> 100 µM
same,TGI,[18],> 100 µM
same,TGI,[19],> 100 µM
same,TGI,[20],> 100 µM
same,TGI,[21],> 100 µM
same,TGI,[22],> 100 µM
same,TGI,[23],> 100 µM
same,TGI,[24],> 100 µM
same,TGI,[25],> 100 µM
same,TGI,[26],> 100 µM
same,TGI,[27],> 100 µM
same,TGI,[28],> 100 µM
same,TGI,[29],> 100 µM
same,TGI,[30],> 100 µM
same,TGI,[31],> 100 µM
same,TGI,[32],> 100 µM
same,TGI,[33],> 100 µM
same,TGI,[34],> 100 µM
same,TGI,[35],> 100 µM
same,TGI,[36],> 100 µM
same,TGI,[37],> 100 µM
same,TGI,[38],> 100 µM
same,TGI,[39],> 100 µM
same,TGI,[40],> 100 µM
same,TGI,[41],> 100 µM
same,TGI,[42],> 100 µM
same,TGI,[43],> 100 µM
same,TGI,[44],> 100 µM
same,TGI,[45],> 100 µM
same,TGI,[46],> 100 µM
same,TGI,[47],> 100 µM
same,TGI,[48],> 100 µM
same,TGI,[49],> 100 µM
same,TGI,[50],> 100 µM
same,TGI,[51],> 100 µM
same,TGI,[52],> 100 µM
same,TGI,[53],> 100 µM
same,TGI,[54],> 100 µM
same,TGI,[55],> 100 µM
COc1ccc(C2=NN(C(=O)c3ccc(Cl)cc3)C(O)(c3cc(F)c(Cl)cc3Cl)C2)cc1 (stereo not given),TGI,[1],> 100 µM
same,TGI,[2],> 100 µM
same,TGI,[3],> 100 µM
same,TGI,[4],> 100 µM
same,TGI,[5],> 100 µM
same,TGI,[6],> 100 µM
same,TGI,[7],> 100 µM
same,TGI,[8],> 100 µM
same,TGI,[9],> 100 µM
same,TGI,[10],> 100 µM
same,TGI,[56],> 100 µM
same,TGI,[11],> 100 µM
same,TGI,[12],> 100 µM
same,TGI,[57],> 100 µM
same,TGI,[13],> 100 µM
same,TGI,[14],> 100 µM
same,TGI,[15],> 100 µM
same,TGI,[16],> 100 µM
same,TGI,[17],> 100 µM
same,TGI,[18],> 100 µM
same,TGI,[19],> 100 µM
same,TGI,[20],> 100 µM
same,TGI,[21],> 100 µM
same,TGI,[22],> 100 µM
same,TGI,[23],> 100 µM
same,TGI,[24],> 100 µM
same,TGI,[25],> 100 µM
same,TGI,[26],> 100 µM
same,TGI,[27],> 100 µM
same,TGI,[28],> 100 µM
same,TGI,[29],> 100 µM
same,TGI,[30],> 100 µM
same,TGI,[31],> 100 µM
same,TGI,[32],> 100 µM
same,TGI,[33],> 100 µM
same,TGI,[34],> 100 µM
same,TGI,[35],> 100 µM
same,TGI,[36],> 100 µM
same,TGI,[37],> 100 µM
same,TGI,[38],> 100 µM
same,TGI,[58],> 100 µM
same,TGI,[39],> 100 µM
same,TGI,[40],> 100 µM
same,TGI,[41],> 100 µM
same,TGI,[42],> 100 µM
same,TGI,[43],> 100 µM
same,TGI,[44],> 100 µM
same,TGI,[45],> 100 µM
same,TGI,[46],> 100 µM
same,TGI,[47],> 100 µM
same,TGI,[48],> 100 µM
same,TGI,[50],> 100 µM
same,TGI,[51],> 100 µM
same,TGI,[52],> 100 µM
same,TGI,[53],> 100 µM
same,TGI,[54],> 100 µM
same,TGI,[55],44.4 µM
Cc1cn(C2CC(O)C(COC(N)=O)O2)c(=O)[nH]c1=O (stereo not given),TGI,[1],> 100 µM
same,TGI,[2],> 100 µM
same,TGI,[3],> 100 µM
same,TGI,[4],> 100 µM
same,TGI,[5],> 100 µM
same,TGI,[6],> 100 µM
same,TGI,[7],> 100 µM
same,TGI,[8],> 100 µM
same,TGI,[9],> 100 µM
same,TGI,[10],> 100 µM
same,TGI,[11],> 100 µM
same,TGI,[12],> 100 µM
same,TGI,[57],> 100 µM
same,TGI,[13],> 100 µM
same,TGI,[14],> 100 µM
same,TGI,[15],> 100 µM
same,TGI,[16],> 100 µM
same,TGI,[17],> 100 µM
same,TGI,[18],> 100 µM
same,TGI,[19],> 100 µM
same,TGI,[20],> 100 µM
same,TGI,[21],> 100 µM
same,TGI,[22],> 100 µM
same,TGI,[23],> 100 µM
same,TGI,[24],> 100 µM
same,TGI,[25],> 100 µM
same,TGI,[26],> 100 µM
same,TGI,[27],> 100 µM
same,TGI,[28],> 100 µM
same,TGI,[29],> 100 µM
same,TGI,[30],> 100 µM
same,TGI,[31],> 100 µM
same,TGI,[32],> 100 µM
same,TGI,[33],> 100 µM
same,TGI,[34],> 100 µM
same,TGI,[35],> 100 µM
same,TGI,[36],> 100 µM
same,TGI,[37],> 100 µM
same,TGI,[38],> 100 µM
same,TGI,[58],> 100 µM
same,TGI,[39],> 100 µM
same,TGI,[40],> 100 µM
same,TGI,[41],> 100 µM
same,TGI,[42],> 100 µM
same,TGI,[43],> 100 µM
same,TGI,[44],> 100 µM
same,TGI,[45],> 100 µM
same,TGI,[46],> 100 µM
same,TGI,[47],> 100 µM
same,TGI,[48],> 100 µM
same,TGI,[59],> 100 µM
same,TGI,[49],> 100 µM
same,TGI,[50],> 100 µM
same,TGI,[51],> 100 µM
same,TGI,[52],> 100 µM
same,TGI,[53],> 100 µM
same,TGI,[54],> 100 µM
same,TGI,[55],> 100 µM
